Source: patent EP0182271A2, “Nb-quaternary dibromo derivatives of ajmaline, isoajmaline, sandwicine and isosandwicine, pharmaceutical compositions containing them, intermediates and process for their preparation” (priority 1984, dated 1986)
Read-outs that look alike come from different tables or passages of the source.

How the values were obtained:
[1] = Acute 7-day toxicity in mice after a single p.o. dose; parameters: species or system Maus; settings: in vivo, po, mouse (male NMRI), 50 % mortality on day 7, probit analysis, read-out: Toxizität LD50
From the text: (§1) Beschreibung der pharmakologischen Versuchsmethoden: • 1. Bestimmung der akuten 7-Tage-Toxizität in Mausen. Die akute Toxizität der Wirkstoffe wird in männlichen NMRI-Mäusen (Körpergewicht 18-22 g) nach einmaliger p.o.-Applikation bestimmt. Die LD50 wird als die Dosis in uMol/kg definiert, welcher eine 50 % Mortalität der Tiere am 7. Tag nach der Applikation entspricht. Die LD50-Werte werden durch eine Probit-Analyse errechnet. • 2. Bestimmung der Hemmwirkung der Substanzen auf durch Aconitin-Infusion induzierte Herzrhythmusstörungen in Ratten.

[2] = tested on: durch Aconitin-Infusion induzierte Herzrhythmusstörungen; test: Inhibition of aconitine-infusion-induced cardiac arrhythmias in rats (method of Raschak); assay type: in vivo, Ratte; settings: Rattus norvegicus, po, 3 h
From the text: as §1
Die Hemmwirkung auf durch Aconitin-Infusion in Ratten verursachte Herzrhythmusstörungcn (Extrasystolen (ES), ventrikuläre Tachykardie (VT) und Kammerflattern (KF)) werden nach der Methode von Raschak (Arzneimittelforsch. 25 (1975), 639-641) bestimmt.
Männliche Ratten mit einem Körpergewicht von 320-400 g werden durch i.p. Applikation von 1,25 g/kg Urethan narkotisiert. Die Tiere werden auf den Rücken gelegt und ihr Elektrokardiogramm wird während des Versuches alle 30 Sekunden gemessen. Den Tieren wird eine i.v. Aconitin-Infusion mit einer Infusionsgeschwindigkeit von 5 µg/kg/min Aconitin und einem Infusionsvolumen von 0,1 ml/min verabreicht. Drei Stunden vor Beginn der Aconitin-Infusion werden den Tieren die Testsubstanzen p.o. in einer Menge von 2 ml/kg Körpergewicht 2%-iger Tylose-Lösung verabreicht. Einer Kontrollgruppe wird nur die Tylose-Lösung verabreicht. Die Infusionsdauer bis zum Auftreten der verschiedenen Herzrhythmusstörungen wird bestimmt.
Antiarrhythmisch wirksame Testverbindungen führen zu einer Verzögerung des Auftretens der Aconitin-induzierten Herzrhythmusstörungen in den behandelten Tieren im Vergleich zu den Kontrolltieren. Aus dem Ausmaß der Verlängerung der Aconitininfusionsdauer und somit der Erhöhung der verabreichten Aconitinmenge, bis zu welcher die Tiere gegen die durch Aconitin induzierten Herzrhythmusstörungen geschützt sind, läßt sich auf die Stärke der antiarrhythmischen Wirksamkeit der Testsubstanzen schließen. Als ED150 wird die Dosis der Testsubstanzen bestimmt, bei welcher die jeweiligen Herzrhythmusstörungen erst nach der Verlängerung der Aconitinfusionsdauer auf 150 % auftreten.

[3] = tested on: ADP-induzierter Plättchenaggregation in PRP-K; test: Inhibition of ADP-induced platelet aggregation in platelet-rich rabbit plasma (PRP/K), method of Born; assay type: cell-based, Kaninchen; settings: Oryctolagus cuniculus, 10-6 Mol/l ADP, read-out: % Hemmwirkung gegenüber ADP-induzierter Plättchenaggregation in PRP-K
From the text: 3. Bestimmung der Hemmwirkung auf durch ADP induzierte Blutplättchenaggregation im blutplättchenreichen Kaninchenblutplasma (PRP/K).
Die in-vitro-Bestimmung der antiaggregatorischen Wirkungen der Substanzen wurde nach der Methode von Born (Nature 194, 927 (1962)), modifiziert für Mikrobestimmungen nach Sim et al (Thromb. Res. 1, 655 (1975)) durchgeführt.
PRP/K wird durch Zentrifugieren von mit Antikoagulanz versetztem Kaninchenblut auf bekannte Weise erhalten. Als Kontrollwerte für die photometrische Bestimmung der Aggregationshemmung werden die optische Dichte des unbehandelten PRP/K (^ß0 % Aggregation) und von PRP/K, in welchem Blutplättchenaggregation durch Behandlung von 10-^6 Mol/1 ? ADP erzeugt wurde (100 % Aggregation), gemessen.
Zur Bestimmung der aggregationshemmmenden Wirkungen der Wirkstoffe werden Proben PRP/K mit einer bestimmten Wirkstoffdosis versetzt und dann mit 10-^6 Mol/1 ADP behandelt. Die Verringerung der optischen Dichte gegenüber der des unbehandelten PRP/K wird gemessen und mit der bei der Behandlung von wirkstoffreiem PRP/K mit 10-^6 Mol/l ADP aufgetretenen optischen Dichteverringerung verglichen. Hieraus wird die durch die eingesetzte Wirkstoffdosis entfaltete Hemmwirkung in % Hemmung der in wirkstoffreiem PRP/K verursachten Aggregation berechnet. Die in diesem Test mit Wirkstoffen der Formel I erhaltenen Ergebnisse werden in der nachstehenden Tabelle II wiedergegeben. Die folgenden Tabellen I und II geben nach den vorstehend beschriebenen Testmethoden erhaltene Ergebnisse wieder. Die für die Verbindungen der Formel I angegebenen Beispielsnummern beziehen sich auf die nachstehenden Herstellungsbeispiele.

[4] = read-out: Hemmwirkung gegenüber aconotininduzierten Herzrhythmusstörungen ED150 ES
[5] = read-out: Hemmwirkung gegenüber aconotininduzierten Herzrhythmusstörungen ED150 KF
[6] = read-out: Hemmwirkung gegenüber aconotininduzierten Herzrhythmusstörungen ED150 VT

Compound | LD50 at 168 h [1] [µmol/kg] | ED150 [2, 4] [µmol/kg] | ED150 [2, 5] [µmol/kg] | ED150 [2, 6] [µmol/kg] | inhibition at 100 µg/mL [3] [%] | inhibition at 50 µg/mL ([3]; dose 50 µg/ml) [%]
CCC1C2CC3C4N(C)c5c(Br)cc(Br)cc5C45CC(C2C5O)[N+]3(CCC(C)C)C1O (stereo not shown) [Beispiel 2, Nb-(3-Methylbutyl)-10,12-dibromajmalinium-chlorid] | 277 | 9 | 11 | 6 | – | –
CCC1C2CC3C4N(C)c5c(Br)cc(Br)cc5C45CC(C2C5O)[N+]3(CCCN2CCOCC2)C1O (stereo not shown) [Beispiel 8, Nb-(3-Morpholinopropyl)-10,12-dibromisoajmalinium-chlorid] | – | – | – | – | 100 | –
CCC1C2CC3C4N(C)c5c(Br)cc(Br)cc5C45CC(C2C5O)[N+]3(C)C1O (stereo not shown) [Beispiel 12, Nb-Methyl-10,12-dibromisosandwicinium-hydrogenfumarat] | 2400 | 49 | 58 | 64 | 83 | –
CCC1C2CC3C4N(C)c5c(Br)cc(Br)cc5C45CC(C2C5O)[N+]3(C)C1O (stereo not shown) [Beispiel 16] | – | – | – | – | – | 81
CCC1C2CC3C4N(C)c5c(Br)cc(Br)cc5C45CC(C2C5O)[N+]3(CCN2CCOCC2)C1O (stereo not shown) [Beispiel 62] | 379 | 11 | 13 | 11 | 100 | –
